Measured values as given in patent US20040022734A1, “Dihydroporphyrin derivatives and their uses” (priority 2000, published 2004).

Assays:
[1] = In vivo spectrofluorimetric measurement of incorporation and retention in muscle, skin and tumor of mice grafted with HT-29; details: 2 mg/kg
Description: For these tests, the following was the procedure: spectrofluorimetric measurements were carried out on mice grafted with HT-29 at different intervals of time after injection of 2 mg/kg^−1 of m-THPC or SIMO1. The tested times were 3, 6, 12, 24, 48 and 144 hours on mice.
The level of fluorescence were recorded in different tissues, namely the muscle, the skin and the tumor. The measurements were taken by using an optical fiber placed directly in contact with the tissues. At least four spectra per tissue and per mouse were recorded (at least five mice were used for each experimental condition). Muscle, skin and tumor were successively studied.
The emission spectra of fluorescence of untreated mice tissue were recorded at three separate times so as to estimate the intermouse variations. The values of fluorescent intensity mentioned in FIG. 6 correspond for each organ to the result of the difference between the value of fluorescence obtained in a treated mouse and the value of fluorescence recorded in the control group. The results of spectrofluorometric measurement in vivo were expressed in beats per second (arbitrary unit).

C6 cells [2] = test: Intracellular localization and pharmacokinetics in C6 cells by fluorescent imaging; format: cell-based; details: FIG. 3; for Incorporation at one hour of incubation (intracellular fluorescence): 1 hour
Description: So as to confirm the potential use of the mentioned compounds for the production of a photosensitive composition administrable to a living creature and useful as an agent adapted to give rise, under the influence of irradiation, to cytolysis or necrosis at least partially of at least one target region of the human or animal body, a visualization was conducted of the localization in vitro of the SIMO1 molecule, as well as the determination of the pharmacokinetics compared to m-THPC, by fluorescent imaging so as to confirm that the mentioned compounds were capable of penetrating the cells. Thus, C6 cells were seeded at a rate of 10^5 cells/ml on circular glass plates after trypsinization. After 24 hours, cells were incubated with SIMO1 (10 μg/ml) at 37° C. for 3 hours and then washed with PBS (pH 7.2). Fluorescence analysis of SIMO1 (emitting at 650 nm) was carried out after excitation of 450 nm to 480 nm with a 150 watt Xenon lamp by using a black and white video camera with very sensitive detection of photons (Kappa CF 8/4; Fischer Scientific S.A., France), connected to an optical microscope (Olympus BX 40, France) provided with an oil immersion objective magnifying 100 times.

C6 cells [3] = test: Toxicity of SIMO1 on non-irradiated C6 cells (MTT count); format: cell-based
Description: C6 cells were cultured in flasks of 25 cm^2 (Polylabo, Strasbourg, France) in an RPMI medium supplemented with 10% (V/V) of fetal calf serum (FCS), 100 units of penicillin mL^-1, […] of streptomycin and 2 mM of glutamine. The cells were replicated by dispersion culturing with 0.025% of trypsin in 0.02% ethylene-diaminotetracetic acid (EDTA) for a contact time of 2 minutes and returned to adhere at a dilution of 1:3, which maintain the cells in the exponential phase of growth. The cells were verified on a regular basis by contamination of the mycoplasms. The cells thus cultivated were subjected to a photodynamic treatment. Aliquots (11 μl) of the photosensitizing solution SIMO1 were added to C6 cells adhered in wells of plates with 96 wells after trypsonation, as described above. The cellular concentration was 5.10^4 cells/ml^-1 (100 μl per well). The final concentration of the solutions of SIMO1 was comprised within the range of 0.5 to 50 μg/ml. Immediately after addition of the photosensitizer SIMO1, the plates of cells were held in complete darkness till the time of counting, except for a laser irradiation of the cells treated with PDT. The fresh medium containing FCS but free from photosensitizer was prepared before laser irradiation. A laser with a diode at 650 nm was used. The power of the end of the fiber was adjusted, by using a device for measuring power (Coherent, France), at 500 mW. The light was transmitted to the target by an optical fiber at a distance of 20 mm so as to irradiate the cells in the wells 6 mm in diameter within a single field providing an illumination of all of the region. The time of exposure was 13 seconds per well at 650 nm, supplying an energy density of 20 J/cm^2. The cells were incubated with SIMO1 for 5 or 20 hours. For phototoxicity tests, the cells were washed and the medium was replaced immediately before laser irradiation. […] The optical density of each well of the microplates was then read at 570 nm by means of a […] […]

[4] = test system: cellular tumor HT29 obtained initially from human colorectal adenocarcinoma; test: In vivo phototoxicity: growth of HT29 tumor grafts in nude mice after injection and laser irradiation; details: for Activity on tumor growth, SIMO1 versus m-THPC: 2 mg/kg intra-peritoneal, irradiation 6 hours and 12 hours after injection, FIG. 5
Description: To establish these conclusions, the following procedure was used: Swiss male nude/nude mice aged 7 to 9 weeks (weight range 25-35 g) were obtained from Iffa-Credo (L'arbresle, France).
The test method is that of the cellular tumor HT29 obtained initially from human colorectal adenocarcinoma.
The tumor grafts were obtained as follows: nonnecrotic solid tumor tissues (diameter 1 to 2 cm) were removed immediately after death of the donor mouse and then mechanically crushed in 1 ml of a 0.9% saline solution. This solution (0.2 ml) was injected sub-cutaneously into the rear paw of each mouse. This tumor was used one week later, when its diameter was 18-20 mm. […] The wavelength was illumination was selected between 652-653 nm.
The light source was a diode laser at 652 nm.
The luminous density was maintained below 0.3 W.cm^−2, at doses at which the thermal effects are indetectable. A single irradiation was carried out and the time of exposure was calculated as a function of the diameter of the tumor to obtain an energy density of 300 J/cm^−2 at a predetermined constant light density.
Each day, the index of tumor growth was measured by using a slide foot, the principal orthogonal diameters being added and divided by a factor of 2.
A statistical characteristic of the growth index between treated and control mice (without light or SIMO1) was carried by using the Student test.

C6 cells [5] = test: Phototoxicity of SIMO1 on C6 cells (laser irradiation, MTT count); format: cell-based; details: 20 joules/cm^2 diode laser
Description: C6 cells were cultured in flasks of 25 cm^2 (Polylabo, Strasbourg, France) in an RPMI medium supplemented with 10% (V/V) of fetal calf serum (FCS), 100 units of penicillin mL^−1, […] of streptomycin and 2 mM of glutamine.
The cells were replicated by dispersion culturing with 0.025% of trypsin in 0.02% ethylene-diaminotetracetic acid (EDTA) for a contact time of 2 minutes and returned to adhere at a dilution of 1:3, which maintain the cells in the exponential phase of growth. The cells were verified on a regular basis by contamination of the mycoplasms.
The cells thus cultivated were subjected to a photodynamic treatment. Aliquots (11 μl) of the photosensitizing solution SIMO1 were added to C6 cells adhered in wells of plates with 96 wells after trypsonation, as described above. The cellular concentration was 5.10^4 cells/ml^−1 (100 μl per well). The final concentration of the solutions of SIMO1 was comprised within the range of 0.5 to 50 μg/ml. Immediately after addition of the photosensitizer SIMO1, the plates of cells were held in complete darkness till the time of counting, except for a laser irradiation of the cells treated with PDT. The fresh medium containing FCS but free from photosensitizer was prepared before laser irradiation. […]
The optical density of each well of the microplates was then read at 570 nm by means of a Uniskan Titertack (Flow Laboratories, Puteaux, France). […]

Compound	Detection of photosensitive agent in tissues after 48 hours ([1]; 48 hours after injection)	Retention time in all the tissues compared to m-THPC ([1]; muscle, skin and tumor, FIG. 6)	Incorporation at one hour of incubation (intracellular fluorescence) (C6 cells [2])	Time of maximum intracellular concentration (fluorescence) after incubation (C6 cells [2])	DL50, toxicity (non-irradiated) (C6 cells [3])	SIMO1 toxicity (non-irradiated) (C6 cells [3]; C6 cells, 5 hours of incubation, no irradiation)	Concentration short of which harmless in the absence of luminous irradiation (C6 cells [3]; C6 cells, no irradiation)	Activity on tumor growth, SIMO1 versus m-THPC [4]	Retardation between intra-peritoneal injection and laser irradiation giving the most marked effects ([4]; 5 mg/kg intra-peritoneal, 300 J/cm^2, FIG. 4)	Slowing of growth of the tumor ([4]; HT-29 grafted nude mice, 5 mg/kg intra-peritoneal, 12 hours between injection and irradiation, 300 J/cm^2 at 652 nm, twelve days after treatment)	Growth of the tumor compared to the untreated control group ([4]; all tested conditions: irradiation 2, 6, 12, 24, 48 hours after 5 mg/kg intra-peritoneal, 300 J/cm^2)	DL50, phototoxic treatment (C6 cells [5]; 5 hours of incubation)	DL50, phototoxic treatment (C6 cells [5]; 20 hours of incubation)	Detection of photosensitive agent in tissues 144 hours after injection ([1]; 144 hours after injection)
2,3-dihydro-5, 15-Bis(3,5-dihydroxy-1-phenyl)-prohyrin [SIMO1]	no photosensitive agent was detected	shorter	high incorporation	3 h	29 µg/mL	no toxicity was detected	about 20 μg/ml	comparable activity	12 h	40%	reduction of growth of the tumor	1.75 µg/mL	0.45 µg/mL	–
Oc1cccc(-c2c3nc(c(-c4cccc(O)c4)c4ccc([nH]4)c(-c4cccc(O)c4)c4nc(c(-c5cccc(O)c5)c5ccc2[nH]5)CC4)C=C3)c1 [m-THPC, reference compound]	–	–	small incorporation	increases to 6 hours	–	–	–	comparable activity	–	–	–	–	–	still detectable
